# Reference: a melting point compilation (Tetko et al.; mined from patent text by program, amines drawn as free bases though some values may be those of a salt)
row,SMILES,melting point [°C]
1,CCCCOc1ccccc1Nc1ncc(C(=O)OCC)c(=O)[nH]1,209 to 211
2,CC(C)(C)CN(NC(=O)c1ccccc1)C(=O)c1ccccc1,237 to 239
3,Nc1cccc2c1CN(C(CCC(=O)O)C(=O)O)C2=O (stereo unspecified),183 to 185
4,C=C(C)C(=O)NC1=CC(C(=O)O)C(O)(C(C)=O)C=C1 (stereo unspecified),192
5,CCSc1ccc(Cl)nc1C#N,79 to 81
6,O=C(C1CCC(Nc2nccc(-n3nnc4c(-c5ccoc5)cccc43)n2)CC1)N1CCC(O)CC1 (stereo unspecified),243 to 244
7,CC(=O)N1Cc2cccn2N(C)c2ccncc21,125 to 130
8,CC(C)N(C=Nc1ccncc1O)C(C)C,77 to 79
9,CCc1ccc(Nc2nc3cc([N+](=O)[O-])ccc3o2)cc1,172 to 173
10,CC(=O)c1cc2ccccc2cn1,84.4 to 86.8
11,Cc1cccc(NC(=O)NC(CC(=O)O)C(=O)N(CC(=O)OC(C)(C)C)c2ccccc2)c1 (racemic),198
12,Cc1cc(-c2nn(C(C)c3oc4ccccc4c(=O)c3-c3cccc(F)c3)c3ncnc(N)c23)ccn1 (stereo unspecified),266 to 268
13,Cc1ccc(S(=O)(=O)OCC2CCC=CO2)cc1 (stereo unspecified),45 to 46
14,COc1ccccc1-c1[nH]c2cccc3c2c1CCNC3=O,254 to 255
15,CCC(=O)NCCSC(=O)CC,48 to 49
16,Cc1cc(CC=CCO)c(O)c2c1NC(=O)C2(C)C,174
17,Cc1nc2ccc(F)cc2[nH]1,177 to 178
18,CN(C)CCCn1c(-c2ccccc2)cc2c1CCS(=O)(=O)C2,123 to 125
19,CC1(C)C(=O)C(C(=O)c2ccc(Cl)cc2[N+](=O)[O-])C(=O)C(C)(C)C1=O,76 to 82
20,CCCCc1nc(Cc2ccc(-c3ccccc3C(=O)O)cc2)c(CC(=O)O)c(Cc2ccc(-c3ccccc3C(=O)O)cc2)n1,160

row,SMILES,melting point [°C]
1,O=C(NCCCCCCCCn1ccnc1)c1cc2cc(Cl)ccc2[nH]1,187 to 189
2,Cc1cc(NC(=O)C(C)(O)COc2ccc(OCCCl)cc2)ccc1[N+](=O)[O-] (stereo unspecified),131 to 133
3,CC(C)(C)OC(=O)NCC1CCN(CC2(C(=O)O)CCC2)CC1,160
4,COc1ccc(N2CCOCC2)c2sc(NC(=O)C[C@H]3CC[C@@H](O)CC3)nc12,212 to 216
5,CC(C)(C)OC(=O)c1cc(Cl)nc(Cl)c1,79 to 81
6,C[C@@H]1CN(CCNC(=S)N(C)C)CC[C@@H]1Nc1nc2ccccc2n1Cc1ccc(F)cc1 (relative stereo),127
7,O=C1Nc2ccc(Cl)c(Cl)c2C1=O,239 to 240
8,CCOC(=O)Cc1ccc(C(=O)c2ccc(Cl)cc2)n1C,74 to 76
9,N#Cc1cccc(NC(=O)NCc2cccc3c2C(=O)N(C2CCC(=O)NC2=O)C3=O)c1 (stereo unspecified),228 to 230
10,CC(C(=O)NCC1CCC1)(c1ccccc1)c1ccccc1,79
11,COc1cc(C(=O)c2ccc(C(F)(F)F)cc2)cc(C#N)c1OC,130
12,CCOC(=O)CN1C(=O)C(=Cc2ccccc2)SC1=S,122 to 125
13,CCCCC[C@H]1CC[C@H](CCc2ccc(CCC)c(C#N)c2C#N)CC1,83.6
14,CC(=O)N1CCN=C1Nc1cc(C)nn1Cc1ccccc1,148 to 149
15,CC(=O)N[C@@H](C)COc1ccc2nc(-c3ccc(OCC4CC4)c(F)c3)oc2c1,174
16,OC1CSC(Oc2cccc(-c3ncccc3F)c2)C(O)C1O (stereo unspecified),150
17,CC(CCCCc1ccccc1)c1cc(O)c2c(c1)OC(C)(C)C1CCC(=O)C=C21 (stereo unspecified),204 to 208
18,COCCc1sc(C(O)(c2nc(C)c(CCOC)s2)C(F)(F)F)nc1C,68 to 69
19,Nc1nc(-c2ccccc2)nc2cccc(Oc3ccccc3)c12,190 to 191
20,Cc1c(C2CCCCC2)nn(C)c1C1CCCCC1,120 to 122

row,SMILES,melting point [°C]
1,COc1ccc([C@@H]2CN(C)CC[C@@H]2NC(=O)c2ccc(C)cc2)cc1OC (relative stereo),145 to 146
2,CCCCN(CC)c1nc(C)nc2c1NC(=O)CN2c1ccc(C(C)C)cc1Br,146 to 147
3,CCOC(=O)c1c(S(=O)(=O)c2ccc(C)cc2)nc(-c2ccccc2)c([N+](=O)[O-])c1C(=O)OCC,115 to 117
4,CCCCCC1CCc2c(c(F)c(F)c3oc(C)cc23)O1 (stereo unspecified),61
5,O=C1CCc2nc(-c3ccccc3)ccc21,177 to 178
6,CN(c1ccccc1)c1ncnc2cc(C(F)(F)F)ccc12,135 to 137
7,CN1C2CCC1CN(C(=O)c1ccc(-c3ccc(N)cc3)o1)C2,190 to 191
8,COc1cc2c(cc1OC)CN(CCCc1ccc(NC(=O)c3cccc4c(=O)c5cccc(OC)c5[nH]c34)cc1)CC2,135
9,CN1CCOC(CN2C(=O)C3(COc4cc5c(cc43)OCCO5)c3ccccc32)C1 (stereo unspecified),85 to 90
10,N#Cc1cccc(C(=O)c2ccc(C3CCCCC3)cc2)c1,73 to 74
11,CCNc1nc2n(n1)CCc1ccccc1-2,100 to 101
12,Cc1nc(-c2ccc(Cl)cc2C(=O)c2ccccc2)n[nH]1,148 to 150
13,c1cc(NC2=NCCS2)c2occc2c1,143 to 145
14,CN(N=[N+](C)[O-])c1ccccc1,55 to 56
15,Nc1cccc(C=C2NC(=O)NC2=O)c1,280 to 284
16,CS(=O)c1ccc(-c2nc(=O)c3ccccc3s2)cn1 (stereo unspecified),195 to 196
17,COC(=O)c1ccc(C#CC(=O)c2ccc3c(c2)C(C)(C)CCC3(C)C)cc1,113 to 114
18,CC(=Cc1ccc(O)c(Br)c1)[N+](=O)[O-],122 to 124

# The next lines start with the values.
row,melting point [°C],SMILES
1,80 to 82,CCCc1nn(C)c2c(OCCOc3ccc(CC(OCC)C(=O)OCC)cc3)nc(-c3ccccc3)nc12 (stereo unspecified)
2,198 to 199,CC(/C=C/C1=C(c2ccc3c(c2)C(C)(C)CCC3(C)C)CCCC1)=C\C(=O)O
3,137 to 139,N#CC(O)c1cccc2c(-c3ccccc3)c([N+](=O)[O-])oc12 (stereo unspecified)
4,138,O=C(NN=Cc1ccnc2ccccc12)C1CCC1
5,124 to 126,Cc1nc2cc(Oc3ncccc3C(=O)NCc3ccc(C(C)(C)O)cc3)ccc2s1
6,270 to 272,O=C(CNc1c(C(=O)O)[nH]c2cc(Cl)cc(Cl)c12)c1ccc([N+](=O)[O-])cc1
7,131,Cc1ccc(S(=O)(=O)OC(c2cccc(C(OS(=O)(=O)c3ccc(C)cc3)(C(F)(F)F)C(F)(F)F)c2)(C(F)(F)F)C(F)(F)F)cc1
8,114 to 115,Cc1c(Br)cc2c(c1C)OCC2c1ccc(C(C)C)cc1 (stereo unspecified)
9,153 to 154,CCCc1nn(C)c(C(N)=O)c1NC(=O)c1ccccc1OCC
10,187 to 188,COc1ccc(-c2nc(S(=O)(=O)c3ccc(Cl)cc3)[nH]c2-c2ccc(OC)cc2)cc1
11,112 to 115,COc1cc(Nc2nccc(Nc3ccc(O)cc3)n2)cc(OC)c1OC
12,105 to 106,CCc1c(C(F)(F)F)noc1NS(=O)(=O)c1ccccc1
13,128 to 130,Nc1ccc(-c2ncnn2-c2ccc(F)cc2)cc1
14,96 to 98,COC(=O)CCCOc1cc([N+](=O)[O-])c(COc2ccccc2)cc1OC
15,203 to 205,c1ccc2[nH]c(CN3CCN(c4nccs4)CC3)nc2c1
16,140,CCCc1nc(SC)c(C(O)CO)n1Cc1ccc(-c2ccccc2S(=O)(=O)NC(=O)NCc2ccccc2)cc1 (stereo unspecified)
17,127,Cc1ncccc1Cn1c(CO)nc(C(C)C)c1Sc1cc(Cl)cc(Cl)c1
18,152 to 154,COCc1c(S(C)(=O)=O)ccc(C(=O)C2SCCCC2=O)c1C (stereo unspecified)
19,112 to 113,CC(C)(C)OC(=O)NCCCCC1C(=O)OC(C)(C)OC1=O
20,160 to 163,COC(=O)[C@@H](NC(=O)[C@H](Cc1ccccc1)NC(=O)c1ccccc1)C(C)C
21,236 to 238,CN(Cc1ccc(NC(=O)C2=Cc3cc(-c4cccc(C(F)(F)F)c4)ccc3S(=O)(=O)CC2)cc1)C1CCOCC1
22,127 to 128,COC1(OC)SC(c2nccs2)=C(C)NC1=O

row,melting point [°C],SMILES
1,180 to 190,COc1cc2c(c(N3CCN(C)CC3)c1)OC(C(=O)Nc1ccc(N3CCN(C)CC3)cc1)CC2 (stereo unspecified)
2,216 to 218,N#CC(=Cc1ccc([N+](=O)[O-])cc1)c1ccc([N+](=O)[O-])cc1
3,147 to 148,BrCc1cc2ccccc2cc1CBr
4,198 to 200,COc1ccc(-c2cc(=Nc3c(C)cc(C)cc3C)n(C)c3nnnn23)cc1OC
5,184,CN1C2CCC1CC(N(C)S(=O)(=O)c1ccc(Nc3nccc(Nc4ccc(F)cc4)n3)cc1)C2 (stereo unspecified)
6,176 to 180,COc1cc(OC)nc(NC(=O)NS(=O)(=O)c2c(C)nsc2OCC(Cl)(Cl)Cl)n1
7,49 to 50,CCCCNC(=O)C(C)(O[Si](C)(C)C(C)(C)C)c1ccc([N+](=O)[O-])cc1 (stereo unspecified)
8,104 to 105,CCCCCN1C(=O)C(O)(c2ccc3c(c2)OCO3)c2cccnc21 (stereo unspecified)
9,90 to 91,Cc1cc(C=CC#N)c(Cl)cc1F
10,107 to 109,Clc1cccc(-c2nc3ccccc3n2-c2ccccc2)c1
11,104,CON(O)C(=O)c1ccccc1[N+](=O)[O-]
12,74 to 76,COc1ccc(C#N)c2c1OC1(CCCC1)C2
13,59 to 61,CCCCS(=O)(=O)Oc1c(C(=O)OC(C)C)sc(C(=O)OC(C)C)c1C
14,128,OC1C2C=CC1C1N=NC21 (stereo unspecified)
15,224 to 226,N#Cc1c(N2CCCCC2)cc(-c2ccc(-n3cccc3)cc2)c2c1Cc1ccccc1-2
16,170 to 172,Cn1ccnc1NC(=S)Nc1ccccc1
17,158,COc1cc(O)c(C(=O)C=Cc2cccnc2)c(OC)c1
18,113 to 115,C#CCn1c(-c2ccccc2)nc(C=C)c(CC)c1=O
19,239 to 243,COC1CN(C(=O)c2cc(-c3cccc(Cl)c3)c(=O)[nH]c2-c2c(Cl)cccc2C#N)C1
20,154 to 155,CN1C(=O)C(c2ccccc2)(c2ccncc2)N=C1N (stereo unspecified)
21,166 to 168,O=S1(=O)CCC=C(O)c2cc(Cl)ccc21
